From patent US8722711B2, “Acylbenzene derivative” (Daiichi Sankyo Company, Limited, priority 2010, dated 2014)

System: Male C57/BL6J mice
Assay: Mouse oGTT (Oral Glucose Tolerance Test)
Assay type: in vivo
Details: 2 h, fasted 16 to 17 hours, compound 10 mg/kg orally 30 minutes before oral glucose load, AUC from 5 minutes before to 120 minutes after glucose, read-out: percentage decrease in plasma glucose AUC (%) compared with the negative control group
Protocol: Mouse oGTT (Oral Glucose Tolerance Test)
A dosing preparation (1 mg/mL of each compound) was produced by suspending in a 0.5 w/v % methyl cellulose solution and then grinding in an agate mortar. Male C57/BL6J mice (Charles River Laboratories Japan, Inc.) were purchased at 6 to 8 weeks of age, and then used at 9 to 13 weeks of age. The mice were fasted from the hours of 17:00 to 18:00 on one day before the test day, and the test was started after 16 to 17 hours-fasting. Five mice were used for each group. Before dosing a compound, blood was collected from the tail vein. Thereafter, a suspension of the compound was orally administered at a dosage of 10 mg/kg. The 0.5 w/v % methyl cellulose solution was administered to a negative control group. Twenty five minutes after dosing the compound, blood was collected from the tail vein, and then thirty minutes after dosing the compound, 30 w/v % glucose solution was orally administered at a volume of 10 mL/kg. Blood was collected from the tail vein 15, 30, 60 and 120 minutes after the glucose administration. Each of the blood samples was centrifuged to obtain the plasma, and the plasma glucose level (mg/dL) was measured with a glucose analyzer (Glucoloader GXT, A&T Corp.). The plasma glucose AUC (mg/dL min) in each mouse was calculated using the plasma glucose values at 5 minutes before and 15, 30, 60 and 120 minutes after the glucose administration. The arithmetic mean of the AUC value was calculated for each group and the percentage decrease in plasma glucose AUC (%) compared with the negative control group was calculated as an index of the efficacy.

Structure (SMILES) | inhibition in vivo at 10 mg/kg [%]
C[C@@H](Oc1ccc(C(=O)C2CC2)cc1)c1nc(-c2ccc(C(=O)NC(CO)CO)c(F)c2)no1 [Example 7, 4-(5-{(1R)-1-[4-(Cyclopropylcarbonyl)phenoxy]ethyl}-1,2,4-oxadiazol-3-yl)-2-fluoro-N-[2-hydroxy-1-(hydroxymethyl)ethyl]benzamide] | > 20
C[C@@H](Oc1ccc(C(=O)C2CC2)cc1)c1nc(-c2ccc(C(=O)NC3CCCC3O)c(F)c2)no1 (stereo in doubt) [Example 9, 4-(5-{(1R)-1-[4-(Cyclopropylcarbonyl)phenoxy]ethyl}-1,2,4-oxadiazol-3-yl)-2-fluoro-N-[(1R,2R)-2-hydroxycyclopentyl]benzamide] | 5 to 20
CC[C@@H](Oc1ccc(C(=O)C2CC2)cc1)c1nc(-c2ccc(C(=O)N[C@@H](C)CO)c(F)c2)no1 [Example 4, 4-(5-{(1R)-1-[4-(Cyclopropylcarbonyl)phenoxy]propyl}-1,2,4-oxadiazol-3-yl)-2-fluoro-N-[(1S)-2-hydroxy-1-methylethyl]benzamide] | 5 to 20
C[C@@H](CO)NC(=O)c1ccc(-c2noc([C@@H](C)Oc3ccc(C(=O)C4CC4)cc3)n2)cc1F [Example 8, 4-(5-{(1R)-1-[4-(Cyclopropylcarbonyl)phenoxy]ethyl}-1,2,4-oxadiazol-3-yl)-2-fluoro-N-[(1S)-2-hydroxy-1-methylethyl]benzamide] | 5 to 20
CC[C@@H](Oc1ccc(C(=O)C2CC2)cc1)c1nc(-c2ccc(C(=O)N[C@H](CO)CCO)c(F)c2)no1 [Example 17, 4-(5-{(1R)-1-[4-(Cyclopropylcarbonyl)phenoxy]propyl}-1,2,4-oxadiazol-3-yl)-2-fluoro-N-[(1S)-3-hydroxy-1-(hydroxymethyl)propyl]benzamide] | 5 to 20
CC[C@@H](Oc1ccc(C(=O)C(C)(C)C)cc1)c1nc(-c2ccc(C(=O)NC(CO)CO)c(F)c2)no1 [Example 12, 4-(5-{(1R)-1-[4-(2,2-Dimethylpropanoyl)phenoxy]propyl}-1,2,4-oxadiazol-3-yl)-2-fluoro-N-[2-hydroxy-1-(hydroxymethyl)ethyl]benzamide] | 5 to 20
CC[C@@H](Oc1ccc(C(=O)C2CC2)cc1)c1nc(-c2ccc(C(=O)NC[C@H](O)CO)c(F)c2)no1 [Example 1, 4-(5-{(1R)-1-[4-(Cyclopropylcarbonyl)phenoxy]propyl}-1,2,4-oxadiazol-3-yl)-N-[(2S)-2,3-dihydroxypropyl]-2-fluorobenzamide] | > 20
C[C@H](CO)NC(=O)c1ccc(-c2noc([C@@H](C)Oc3ccc(C(=O)C4CC4)cc3)n2)cc1F [Example 10, 4-(5-{(1R)-1-[4-(Cyclopropylcarbonyl)phenoxy]ethyl}-1,2,4-oxadiazol-3-yl)-2-fluoro-N-[(1R)-2-hydroxy-1-methylethyl]benzamide] | 5 to 20
C[C@@H](Oc1ccc(C(=O)C2CC2)cc1)c1nc(-c2ccc(C(=O)NC3CCCC3O)c(F)c2)no1 (stereo in doubt) [Example 11, 4-(5-{(1R)-1-[4-(Cyclopropylcarbonyl)phenoxy]ethyl}-1,2,4-oxadiazol-3-yl)-2-fluoro-N-[(1S,2S)-2-hydroxycyclopentyl]benzamide] | 5 to 20
CC[C@@H](Oc1ccc(C(=O)C2CC2)cc1)c1nc(-c2ccc(C(=O)N[C@H](C)[C@@H](O)CO)c(F)c2)no1 [Example 19, 4-(5-{(1R)-1-[4-(Cyclopropylcarbonyl)phenoxy]propyl}-1,2,4-oxadiazol-3-yl)-N-[(1R,2R)-2,3-dihydroxy-1-methylpropyl]-2-fluorobenzamide] | 5 to 20
CC[C@@H](Oc1ccc(C(=O)C2CCC2)cc1)c1nc(-c2ccc(C(=O)NC(CO)CO)c(F)c2)no1 [Example 13, 4-(5-{(1R)-1-[4-(Cyclobutylcarbonyl)phenoxy]propyl}-1,2,4-oxadiazol-3-yl)-2-fluoro-N-[2-hydroxy-1-(hydroxymethyl)ethyl]benzamide] | 5 to 20
C[C@@H](Oc1ccc(C(=O)C2CC2)cc1)c1nc(-c2ccc(C(=O)N[C@H](C)[C@@H](O)CO)c(F)c2)no1 [Example 23, 4-(5-{(1R)-1-[4-(Cyclopropylcarbonyl)phenoxy]ethyl}-1,2,4-oxadiazol-3-yl)-N-[(1R,2R)-2,3-dihydroxy-1-methylpropyl]-2-fluorobenzamide] | > 20
CC[C@@H](Oc1ccc(C(=O)C(C)C)cc1)c1nc(-c2ccc(C(=O)NC(CO)CO)c(F)c2)no1 [Example 16, 2-Fluoro-N-[2-hydroxy-1-(hydroxymethyl)ethyl]-4-{5-[(1R)-1-(isobutyrylphenoxy)propyl]-1,2,4-oxadiazol-3-yl}benzamide] | 5 to 20
CC[C@@H](Oc1ccc(C(=O)C2CC2)cc1)c1nc(-c2ccc(C(=O)NC[C@@H](O)CO)c(F)c2)no1 [Example 5, 4-(5-{(1R)-1-[4-(Cyclopropylcarbonyl)phenoxy]propyl}-1,2,4-oxadiazol-3-yl)-N-[(2R)-2,3-dihydroxypropyl]-2-fluorobenzamide] | 5 to 20
CC[C@@H](Oc1ccc(C(=O)C(C)C)cc1)c1nc(-c2ccc(C(=O)N[C@H](C)CO)c(F)c2)no1 [Example 15, 2-Fluoro-N-[(1R)-2-hydroxy-1-methylethyl]-4-{5-[(1R)-1-(4-isobutyrylphenoxy)propyl]-1,2,4-oxadiazol-3-yl}benzamide] | 5 to 20
CC[C@@H](Oc1ccc(C(=O)C2CC2)cc1)c1nc(-c2ccc(C(=O)N[C@H](C)CO)c(F)c2)no1 [Example 3, 4-(5-{(1R)-1-[4-(Cyclopropylcarbonyl)phenoxy]propyl}-1,2,4-oxadiazol-3-yl)-2-fluoro-N-[(1R)-2-hydroxy-1-methylethyl]benzamide] | 5 to 20
CC[C@@H](Oc1ccc(C(=O)C2CC2)cc1)c1nc(-c2ccc(C(=O)NC(CO)CO)c(F)c2)no1 [Example 6, 4-(5-{(1R)-1-[4-(Cyclopropylcarbonyl)phenoxy]propyl}-1,2,4-oxadiazol-3-yl)-2-fluoro-N-[2-hydroxy-1-(hydroxymethyl)ethyl]benzamide] | 5 to 20
CC[C@@H](Oc1ccc(C(=O)C2(F)CC2)cc1)c1nc(-c2ccc(C(=O)NC(CO)CO)c(F)c2)no1 [Example 14, 2-Fluoro-4-{5-[(1R)-1-{4-[(1-fluorocyclopropyl)carbonyl]phenoxy}propyl]-1,2,4-oxadiazol-3-yl}-N-[2-hydroxy-1-(hydroxymethyl)ethyl]benzamide] | 5 to 20
CC[C@@H](Oc1ccc(C(=O)C2CC2)cc1)c1nc(-c2ccc(C(=O)N[C@@H](CO)C(N)=O)c(F)c2)no1 [Example 2, N-[(1S)-2-Amino-1-(hydroxymethyl)-2-oxoethyl]-4-(5-{(1R)-1-[4-(cyclopropylcarbonyl)phenoxy]propyl}-1,2,4-oxadiazol-3-yl)-2-fluorobenzamide] | > 20
